How the values were obtained:
Assay type in all cases: in vivo
corn plants = experiment: Vigor rating of corn plants at 12 DAP as indication of phytotoxicity from seed or soil treatment (Reference Example 1); conditions: rating 1 extremely low vigor, 10 highest
Procedure: (§1) A lambda-cyhalothrin seed treatment formulation was prepared by diluting the WARRIOR® T insecticide (Zeneca Ag Products, Wilmington, Del.), which contains 11.4% lambda-cyhalothrin as the active ingredient, into water as a carrier. This formulation was applied for one minute at room temperature to twenty-five grams of Pioneer corn seed (Cultivar PN3394) in a rotostatic seed treater at a rate of 125 g, 250 g or 500 g active ingredient (Al) to 100 kg seed. The treated seeds were allowed to sit uncapped for four to twenty-four hours before planting.
(§2) Treated and untreated seeds (Pioneer hybrid PN3394) were planted in a soil mix consisting of Dupo silt loam, 30% Perlite, 20% coarse sand (WB-10 grade) in six groups of tubs (20 in. L×15 in. W×8 in. D). Twelve seeds were planted per tub and three tubs were planted for each treatment regimen. Soil applications of FORCE® 3GR, which contains 3% tefluthrin granule as the active ingredient, were used for two sets of tubs containing untreated seeds. The FORCE 3GR was applied either in-furrow or incorporated into a 5 inch band on the soil surface at the time of planting. The tubs were overhead irrigated until the plants were infested with black cutworm larvae.
At twelve days after planting (DAP) but before infestation, the overall health of each plant was rated by looking at emergence, height and appearance. This vigor rating gives an indication of any phytotoxicity from the seed or soil treatment. A rating of 1 indicates extremely low. vigor while 10 is the highest vigor rating.

black cutworm larvae [1] = experiment: Black cutworm feeding damage on corn: lambda-cyhalothrin seed treatment vs tefluthrin soil granular treatments (Reference Example 1); conditions: for Plant Defol. 3 DAI / Plant Defol. 7 DAI / Plant Defol. 10 DAI: rating 1=no damage, 10=complete defoliation
Procedure: This example compares the efficacy of seed treatment with lambda-cyhalothrin (CAS #91465-08-6) to soil granular treatments with tefluthrin (CAS #79538-32-2) against feeding damage by black cutworm larvae on shoots and foliage.
as §1, §2
The rate of application for the FORCE 3GR was reported in units of grams of the active ingredient per hectare (g/ha), while the rate of application of the WARRIOR T to the seeds was reported in units of grams of the active ingredient per 100 kilograms of the seeds (g/100 kg). Although the conversion of one of these units to the other will vary somewhat according to the type of seed that is being used, the size and weight of the seed, and the density of planting that is used—among other things—an approximate conversion for corn seed can be carried out as follows. Assuming a seed application rate of lambda cyhalothrin of, for example, 125 g/100 kg of seed and a planting density of 15 lbs seed/ac, about 14.7 acres can be planted with 100 kg of the seed. This is an effective application rate of about 8.5 g of lambda cyhalthrin per acre. At 2.47 ac/ha, the seed treatment level of 125 g/100 kg is approximately equivalent to a surface banding treatment at about 21 g/ha.
The corn plants were infested at 12 DAP, which corresponds to late growth stage V1 by placing two black cutworm larvae at ¾ instar on the soil surface near the base of the plant. Plants were rated 3, 7 and 10 days after infestation (DAI) for the number of cut plants, as well as damage from leaf feeding. The percent stand reduction due to plant cutting was calculated by dividing the number of cut plants into the number of plants present at infestation. The foliar feeding injury was evaluated using a rating scale of 1=no damage and 10=complete defoliation.

black cutworm larvae [2] = experiment: Protection of corn plants against black cutworm damage by seed treatment with tefluthrin, clothianidin and combinations; Colby synergy (Example 2); conditions: for STAND REDUCTION (% at 10 days): 10 DAI; for Percent of Control: stand reduction as percent of untreated control
Procedure: This example illustrates the efficacy of corn seed treatment with a combination of tefluthrin and clothianidin against plant damage by black cutworm.
Seed treatment formulations were prepared from RAZE® 2.5 FS formulation (available from Wilbur-Ellis Co.) containing 26.8% tefluthrin, and clothianidin, (E)-(N-[(2-chloro-5-thiazolyl)methyl]-N′-methyl-N″-nitroguanidine; CAS Registry number 210880-92-5. In addition, separate seed treatment formulations were prepared from each of the two insecticides alone. Corn seed was prepared and treated as described in Reference Example 1, except that the treatment levels of the active ingredients on the seeds was as shown in Table 3. Treated and untreated seeds were planted in tubs and cultivated as described in Example 1. The tubs were overhead irrigated until the plants were infested with black cutworm larvae.
The corn plants were infested at 12 DAP, as described in Reference Example 1, Plants were rated at 10 days after infestation (DAI) for the number of cut plants. The percent stand reduction due to plant cutting was calculated by dividing the number of cut plants into the number of plants present at infestation.
Whether a combination of insecticides provided synergy in protection against cutworm damage was calculated as described by Colby, Robert. S., in Weeds, 15(1):20-22 (1967). The threshold value (stated as % of control) for synergy of a combination was calculated as =(% of control for treatment A)*(% of control for treatment B)/100(n−1); where n=number of active ingredients in combination. A measured % of control value that is less than the threshold value indicates synergy of the combination. Threshold values for synergy were calculated for each of the combinations of Table 3, and the threshold values for synergy of combinations of the active ingredients at various levels are shown in Table 4.

[3] = seed treatment 125 g/100 kg seed
[4] = seed treatment 250 g/100 kg seed
[5] = seed treatment 500 g/100 kg seed

Cc1c(F)c(F)c(COC(=O)[C@@H]2[C@H](/C=C(\Cl)C(F)(F)F)C2(C)C)c(F)c1F (racemic) [Tefluthrin, (2,3,5,6-tetrafluoro-4-methylphenyl)-methyl-(1 alpha, 3 alpha)-(Z)-(±)-3-(2-chloro-3,3,3-trifluoro-1-propenyl)-2,2-dimethylcyclopropanecarboxylate]
Vigor at 12 DAP (corn plants; soil granule (FORCE 3GR) banded 30 g/ha): 8.7 | Vigor at 12 DAP (corn plants; soil granule (FORCE 3GR) in-furrow 30 g/ha): 9.0 | Plant Defol. 3 DAI (black cutworm larvae [1]; banded 30 g/ha (FORCE 3GR)): 1.7 | % Stand Reduct'n 7 DAI (black cutworm larvae [1]; banded 30 g/ha (FORCE 3GR)): 0.0% | Plant Defol. 7 DAI (black cutworm larvae [1]; banded 30 g/ha (FORCE 3GR)): 1.7 | % Stand Reduct'n 10 DAI (black cutworm larvae [1]; banded 30 g/ha (FORCE 3GR)): 0.0% | Plant Defol. 10 DAI (black cutworm larvae [1]; banded 30 g/ha (FORCE 3GR)): 0.3 | % Stand Reduct'n 3 DAI (black cutworm larvae [1]; banded 30 g/ha (FORCE 3GR, 5 inch soil surface band)): 0.0% | Plant Defol. 3 DAI (black cutworm larvae [1]; in-furrow 30 g/ha (FORCE 3GR)): 5.0 | % Stand Reduct'n 7 DAI (black cutworm larvae [1]; in-furrow 30 g/ha (FORCE 3GR)): 48.0% | Plant Defol. 7 DAI (black cutworm larvae [1]; in-furrow 30 g/ha (FORCE 3GR)): 6.0 | % Stand Reduct'n 10 DAI (black cutworm larvae [1]; in-furrow 30 g/ha (FORCE 3GR)): 48.0% | Plant Defol. 10 DAI (black cutworm larvae [1]; in-furrow 30 g/ha (FORCE 3GR)): 5.3

CN/C(=N\[N+](=O)[O-])NCc1cnc(Cl)s1 [Clothianidin, (E)-1-(2-chloro-1,3-thiazol-5-ylmethyl)-3-methyl-2-nitroguanidine]
STAND REDUCTION (% at 10 days) (black cutworm larvae [2]; seed treatment clothianidin 50 gm/100 kg seed): 61.15% | STAND REDUCTION (% at 10 days) (black cutworm larvae [2]; seed treatment clothianidin 100 gm/100 kg seed): 34.38% | Percent of Control (black cutworm larvae [2]; clothianidin 50 gm/100 kg seed): 61.2% | Percent of Control (black cutworm larvae [2]; clothianidin 100 gm/100 kg seed): 34.4%

CC1(C)[C@H](C(=O)O[C@H](C#N)c2cccc(Oc3ccccc3)c2)[C@@H]1/C=C(\Cl)C(F)(F)F [λ-cyhalothrin, [1 alpha (s), 3 alpha(z)]-cyano(3-phenoxyphenyl)methyl-3-(2-chloro-3,3,3-trifluoro-1-propenyl)-2,2-dimethylcyclopropane carboxylate]
Vigor at 12 DAP (corn plants; seed treatment 125 g AI/100 kg corn seed): 9.0 | Vigor at 12 DAP (corn plants; seed treatment 250 g AI/100 kg corn seed): 8.3 | Vigor at 12 DAP (corn plants; seed treatment 500 g AI/100 kg corn seed): 8.3 | Plant Defol. 3 DAI (black cutworm larvae [1]; [3]): 4.3 | Plant Defol. 7 DAI (black cutworm larvae [1]; [3]): 5.0 | Plant Defol. 10 DAI (black cutworm larvae [1]; [3]): 3.3 | % Stand Reduct'n 3 DAI (black cutworm larvae [1]; [4]): 3.0% | Plant Defol. 3 DAI (black cutworm larvae [1]; [4]): 3.7 | % Stand Reduct'n 7 DAI (black cutworm larvae [1]; [4]): 3.0% | % Stand Reduct'n 7 DAI (black cutworm larvae [1]; seed treatment 250 g/100 kg seed, listed as lambda-cyhalothrin): 3% | Plant Defol. 7 DAI (black cutworm larvae [1]; [4]): 2.7 | % Stand Reduct'n 10 DAI (black cutworm larvae [1]; [4]): 3.0% | Plant Defol. 10 DAI (black cutworm larvae [1]; [4]): 1.7 | % Stand Reduct'n 3 DAI (black cutworm larvae [1]; [5]): 0.0% | Plant Defol. 3 DAI (black cutworm larvae [1]; [5]): 2.0 | % Stand Reduct'n 7 DAI (black cutworm larvae [1]; [5]): 0.0% | % Stand Reduct'n 7 DAI (black cutworm larvae [1]; seed treatment 500 g/100 kg seed, listed as lambda-cyhalothrin): 0% | Plant Defol. 7 DAI (black cutworm larvae [1]; [5]): 2.3 | % Stand Reduct'n 10 DAI (black cutworm larvae [1]; [5]): 0.0% | Plant Defol. 10 DAI (black cutworm larvae [1]; [5]): 1.0

From patent US8524634B2, “Seed treatment with combinations of pyrethrins/pyrethroids and clothianidin” (priority 2000, dated 2013)
